Measured values as given in ChEMBL document CHEMBL1201862, “PubChem BioAssay data set” (2004).
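Each compound was tested at five concentrations against cells in 96-well plates for 48 hours. Here, GI50 denotes the concentration required for 50% inhibition of growth.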 Calls of active or inactive are those of the source. Rule as the data show it: active = GI50 up to about 1.1 µM and inactive = higher.

How the values were obtained:
Experiment in all cases: inhibition of tumour cell growth, NCI panel, 48 h
786-0 = tested on: 786-0
A498 = tested on: A498
A549 = tested on: A549
ACHN = tested on: ACHN
CAKI-1 = tested on: CAKI-1
CCRF-CEM = tested on: CCRF-CEM
COLO 205 = tested on: COLO 205
DLD-1 = tested on: DLD-1
DMS-114 = tested on: DMS-114
DMS-273 = tested on: DMS-273
EKVX = tested on: EKVX
HCC 2998 = tested on: HCC 2998
HCT-15 = tested on: HCT-15
HL-60 = tested on: HL-60
HOP-18 = tested on: HOP-18
HOP-62 = tested on: HOP-62
HOP-92 = tested on: HOP-92
HT-29 = tested on: HT-29
IGROV-1 = tested on: IGROV-1
K562 = tested on: K562
KM-20L2 = tested on: KM-20L2
KM12 = tested on: KM12
LOX IMVI = tested on: LOX IMVI
LXFL 529 = tested on: LXFL 529
M14 = tested on: M14
M19-MEL = tested on: M19-MEL
MOLT-4 = tested on: MOLT-4
Malme-3M = tested on: Malme-3M
NCI-H226 = tested on: NCI-H226
NCI-H23 = tested on: NCI-H23
NCI-H460 = tested on: NCI-H460
NCI-H522 = tested on: NCI-H522
OVCAR-3 = tested on: OVCAR-3
OVCAR-4 = tested on: OVCAR-4
OVCAR-5 = tested on: OVCAR-5
OVCAR-8 = tested on: OVCAR-8
RPMI-8226 = tested on: RPMI-8226
RXF 393 = tested on: RXF 393
RXF 631 = tested on: RXF 631
SF-268 = tested on: SF-268
SF-295 = tested on: SF-295
SF-539 = tested on: SF-539
SK-MEL-28 = tested on: SK-MEL-28
SK-MEL-2 = tested on: SK-MEL-2
SK-MEL-5 = tested on: SK-MEL-5
SK-OV-3 = tested on: SK-OV-3
SN12C = tested on: SN12C
SNB-19 = tested on: SNB-19
SNB-75 = tested on: SNB-75
SNB-78 = tested on: SNB-78
SW-620 = tested on: SW-620
TK-10 = tested on: TK-10
U-251 = tested on: U-251
UACC-257 = tested on: UACC-257
UACC-62 = tested on: UACC-62
UO-31 = tested on: UO-31
XF498 = tested on: XF498

CCOc1ccc(/N=C\c2ccc3cc(C)ccc3n2)cc1
GI50 (786-0): 51.6 µM (inactive)
GI50 (A498): 72.3 µM (inactive)
GI50 (A549): > 100 µM (inactive)
GI50 (ACHN): 35.8 µM (inactive)
GI50 (CAKI-1): 36.9 µM (inactive)
GI50 (CCRF-CEM): 22.5 µM (inactive)
GI50 (COLO 205): > 100 µM (inactive)
GI50 (DLD-1): 48.8 µM (inactive)
GI50 (DMS-114): 31.1 µM (inactive)
GI50 (DMS-273): 43.2 µM (inactive)
GI50 (EKVX): 55.6 µM (inactive)
GI50 (HCC 2998): 33.2 µM (inactive)
GI50 (HCT-15): 41.8 µM
GI50 (HL-60): 19.5 µM (inactive)
GI50 (HOP-18): > 100 µM (inactive)
GI50 (HOP-62): > 100 µM (inactive)
GI50 (HOP-92): 66.8 µM (inactive)
GI50 (HT-29): 34.6 µM (inactive)
GI50 (IGROV-1): 77.6 µM (inactive)
GI50 (K562): 25.4 µM (inactive)
GI50 (KM-20L2): 34.7 µM (inactive)
GI50 (KM12): 37.1 µM (inactive)
GI50 (LOX IMVI): 30.6 µM (inactive)
GI50 (LXFL 529): 30.5 µM (inactive)
GI50 (M14): 49.1 µM (inactive)
GI50 (M19-MEL): 52.4 µM (inactive)
GI50 (MOLT-4): 27.3 µM (inactive)
GI50 (Malme-3M): > 100 µM (inactive)
GI50 (NCI-H226): > 100 µM (inactive)
GI50 (NCI-H23): > 100 µM (inactive)
GI50 (NCI-H460): 69.3 µM (inactive)
GI50 (NCI-H522): > 100 µM (inactive)
GI50 (OVCAR-3): 33.1 µM (inactive)
GI50 (OVCAR-4): 75.3 µM (inactive)
GI50 (OVCAR-5): > 100 µM (inactive)
GI50 (OVCAR-8): 50.2 µM (inactive)
GI50 (RPMI-8226): 22.8 µM (inactive)
GI50 (RXF 393): 91 µM (inactive)
GI50 (RXF 631): > 100 µM (inactive)
GI50 (SF-268): 69 µM (inactive)
GI50 (SF-295): 68.5 µM (inactive)
GI50 (SF-539): 40.3 µM (inactive)
GI50 (SK-MEL-28): > 100 µM (inactive)
GI50 (SK-MEL-2): 45.1 µM (inactive)
GI50 (SK-MEL-5): 57.8 µM (inactive)
GI50 (SK-OV-3): > 100 µM (inactive)
GI50 (SN12C): > 100 µM (inactive)
GI50 (SNB-19): 49 µM (inactive)
GI50 (SNB-75): 40.7 µM (inactive)
GI50 (SNB-78): > 100 µM (inactive)
GI50 (SW-620): 58.9 µM (inactive)
GI50 (TK-10): 79.3 µM (inactive)
GI50 (U-251): > 100 µM (inactive)
GI50 (UACC-257): 76 µM (inactive)
GI50 (UACC-62): 37.9 µM (inactive)
GI50 (UO-31): 31 µM (inactive)
GI50 (XF498): > 100 µM (inactive)
